Like-named read-outs stand apart in the source and are kept apart here.
System: non-gonococcal Neisseria
Assay: MIC determination for non-gonococcal Neisseria, agar dilution
Assay type: cell-based, Neisseria species
Conditions: read-out: Minimum inhibitory concentration
Text: The 2024 WHO N. gonorrhoeae reference strains were used for quality control. Only whole MIC doubling dilutions are reported. Clinical breakpoints or the epidemiological cutoff (ECOFF, to indicate azithromycin resistance) from EUCAST (v14.0, https://www.eucast.org/clinical_breakpoints) were used to classify isolates as antimicrobial susceptible or resistant. […] Two times the standard inoculum defined by CLSI was used to establish consistent growth in untreated control samples for some strains. In vitro time-kill assays were performed according to CLSI guidelines[65] using Columbia Broth (BD Difco) supplemented with 1% IsoVitaleX Enrichment (BD). Viable bacterial counts were generated by plating 10-fold serially diluted samples on GC agar plates containing 1% IsoVitaleX Enrichment (BD).

Measured: MIC

Cc1c(CN(C)C(=O)/C=C/c2cnc3c(c2)N[C@H](C)[C@H](O)C(=O)N3)oc2ccccc12 [Debio 1453]
0.25 µg/mL: Neisseria macacae 3, Consensus | Neisseria macacae 3, Replicate 1 | Neisseria macacae 3, Replicate 2 | Neisseria macacae 6, Replicate 1 | Neisseria macacae 7, Replicate 1 | Neisseria mucosa 1, Consensus | Neisseria mucosa 1, Replicate 1 | Neisseria mucosa 1, Replicate 3
0.032 µg/mL: Neisseria lactamica 1, Replicate 3 | Neisseria lactamica 5, Replicate 1 | Neisseria lactamica 6, Consensus | Neisseria lactamica 6, Replicate 1 | Neisseria lactamica 6, Replicate 2 | Neisseria lactamica 6, Replicate 3 | Neisseria lactamica 7, Consensus | Neisseria lactamica 7, Replicate 1 | Neisseria lactamica 7, Replicate 2 | Neisseria lactamica 8, Consensus | Neisseria lactamica 8, Replicate 1 | Neisseria lactamica 8, Replicate 2 | Neisseria lactamica 9, Replicate 2 | Neisseria lactamica 10, Consensus | Neisseria lactamica 10, Replicate 1 | Neisseria lactamica 10, Replicate 3 | Neisseria lactamica 11, Consensus | Neisseria lactamica 11, Replicate 1 | Neisseria lactamica 11, Replicate 2 | Neisseria lactamica 11, Replicate 3 | Neisseria meningitidis gr 29E, Replicate 2 | Neisseria meningitidis gr A, Consensus | Neisseria meningitidis gr A, Replicate 1 | Neisseria meningitidis gr A, Replicate 2 | Neisseria meningitidis gr A, Replicate 3 | Neisseria meningitidis gr C, Consensus | Neisseria meningitidis gr C, Replicate 1 | Neisseria meningitidis gr C, Replicate 2 | Neisseria meningitidis gr C, Replicate 3 | Neisseria meningitidis gr Z, Replicate 1 | Neisseria mucosa 3, Consensus | Neisseria mucosa 3, Replicate 1 | Neisseria mucosa 3, Replicate 2
2 µg/mL: Neisseria macacae 1, Consensus | Neisseria macacae 1, Replicate 2 | Neisseria macacae 1, Replicate 3 | Neisseria macacae 2, Consensus | Neisseria macacae 2, Replicate 1 | Neisseria macacae 2, Replicate 2 | Neisseria macacae 2, Replicate 3 | Neisseria macacae 4, Consensus | Neisseria macacae 4, Replicate 2 | Neisseria macacae 4, Replicate 3 | Neisseria macacae 5, Consensus | Neisseria macacae 5, Replicate 1 | Neisseria macacae 5, Replicate 2 | Neisseria macacae 5, Replicate 3
0.5 µg/mL: Neisseria macacae 3, Replicate 3 | Neisseria macacae 6, Consensus | Neisseria macacae 6, Replicate 2 | Neisseria macacae 6, Replicate 3 | Neisseria macacae 7, Consensus | Neisseria macacae 7, Replicate 2 | Neisseria macacae 7, Replicate 3 | Neisseria mucosa 1, Replicate 2
0.008 µg/mL: Neisseria meningitidis gr W, Consensus | Neisseria meningitidis gr W, Replicate 1 | Neisseria meningitidis gr W, Replicate 2 | Neisseria meningitidis gr W, Replicate 3 | Neisseria meningitidis gr Y, Consensus | Neisseria meningitidis gr Y, Replicate 2 | Neisseria meningitidis gr Y, Replicate 3
1 µg/mL: Neisseria macacae 1, Replicate 1 | Neisseria macacae 4, Replicate 1 | Neisseria mucosa 4, Consensus
0.016 µg/mL: Neisseria lactamica 3, Consensus | Neisseria lactamica 3, Replicate 1 | Neisseria lactamica 3, Replicate 2 | Neisseria lactamica 3, Replicate 3 | Neisseria lactamica 5, Consensus | Neisseria lactamica 5, Replicate 2 | Neisseria lactamica 5, Replicate 3 | Neisseria lactamica 10, Replicate 2 | Neisseria meningitidis gr B, Consensus | Neisseria meningitidis gr B, Replicate 1 | Neisseria meningitidis gr B, Replicate 2 | Neisseria meningitidis gr B, Replicate 3 | Neisseria meningitidis gr X, Consensus | Neisseria meningitidis gr X, Replicate 1 | Neisseria meningitidis gr X, Replicate 2 | Neisseria meningitidis gr X, Replicate 3 | Neisseria meningitidis gr Y, Replicate 1 | Neisseria meningitidis gr Z, Consensus | Neisseria meningitidis gr Z, Replicate 2 | Neisseria meningitidis gr Z, Replicate 3
0.064 µg/mL: Neisseria lactamica 2, Consensus | Neisseria lactamica 2, Replicate 1 | Neisseria lactamica 2, Replicate 2 | Neisseria lactamica 2, Replicate 3 | Neisseria lactamica 4, Consensus | Neisseria lactamica 4, Replicate 1 | Neisseria lactamica 4, Replicate 2 | Neisseria lactamica 4, Replicate 3 | Neisseria lactamica 7, Replicate 3 | Neisseria lactamica 8, Replicate 3 | Neisseria lactamica 9, Consensus | Neisseria lactamica 9, Replicate 1 | Neisseria lactamica 9, Replicate 3 | Neisseria meningitidis gr 29E, Consensus | Neisseria meningitidis gr 29E, Replicate 1 | Neisseria meningitidis gr 29E, Replicate 3 | Neisseria mucosa 2, Replicate 1 | Neisseria mucosa 3, Replicate 3

From article PMC12446476 (Nature Communications, 2025)
